Test results taken from patent US20240254115A1 (ACONDICIONAMIENTO TARRASENSE, priority 2021, published 2024).

Experiments:
[1] = biological target: T1, human σ1 receptor (Homo sapiens, UniProt Q99720); assay: Human σ1 receptor radioligand assay; conditions: transfected HEK-293 membranes, 5 nM [3H](+)-pentazocine, 37° C. 120 minutes; + may also stand for 1-50% inhibition at 1 or 10 μM; read-out: Binding σ-1 Ki
T1 construct: expressed in transfected cells; host or cells: HEK-293
Experimental: Human σ1 Receptor Radioligand Assay
Transfected HEK-293 membranes (7 μg) were incubated with 5 nM of [^3H](+)-pentazocine in assay buffer containing Tris-HCl 50 mM at pH 8. NBS (non-specific binding) was measured by adding 10 μM haloperidol. The binding of the test compound was measured at either one concentration (% inhibition at 1 or 10 μM) or five different concentrations to determine affinity values (Ki). Plates were incubated at 37° C. for 120 minutes. After the incubation period, the reaction mix was then transferred to MultiScreen HTS, FC plates (Millipore), filtered and plates were washed 3 times with ice-cold 10 mM Tris-HCL (pH7.4). Filters were dried and counted at approximately 40% efficiency in a MicroBeta scintillation counter (Perkin-Elmer) using EcoScint liquid scintillation cocktail.

[2] = biological target: T2, human σ2/TMEM97 receptor (Homo sapiens, UniProt Q5BJF2); assay: Binding assay to human σ2/TMEM97 receptor; conditions: transfected HEK-293 membranes, 10 nM [3H]-DTG, 25° C. 120 minutes; + may also stand for 1-50% inhibition at 1 or 10 μM; read-out: Binding σ-2 Ki
T2 construct: expressed in transfected cells; host or cells: HEK-293
T2 sequence (Q5BJF2 whole entry): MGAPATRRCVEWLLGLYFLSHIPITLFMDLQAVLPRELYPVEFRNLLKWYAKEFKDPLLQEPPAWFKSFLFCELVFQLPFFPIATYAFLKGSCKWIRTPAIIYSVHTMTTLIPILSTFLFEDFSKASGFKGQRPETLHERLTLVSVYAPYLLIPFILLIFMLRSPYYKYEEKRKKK
Experimental: Binding Assay to Human σ2/TMEM97 Receptor
Transfected HEK-293 membranes (15 μg) were incubated with 10 nM [^3H]-1,3-Di-o-tolylguanidine (DTG) in assay buffer containing Tris-HCl 50 mM at pH 8.0. NSB (non-specific binding) was measured by adding 10 μM haloperidol. The binding of the test compound was measured at either one concentration (% inhibition at 1 or 10 μM) or five different concentrations to determine affinity values (Ki). Plates were incubated at 25° C. for 120 minutes. After the incubation period, the reaction mix was transferred to MultiScreen HTS, FC plates (Millipore), filtered and washed 3 times with ice-cold 10 mM Tris-HCL (pH 8.0). Filters were dried and counted at approximately 40% efficiency in a MicroBeta scintillation counter (Perkin-Elmer) using EcoScint liquid scintillation cocktail.

T1 sequence (Q99720 whole entry): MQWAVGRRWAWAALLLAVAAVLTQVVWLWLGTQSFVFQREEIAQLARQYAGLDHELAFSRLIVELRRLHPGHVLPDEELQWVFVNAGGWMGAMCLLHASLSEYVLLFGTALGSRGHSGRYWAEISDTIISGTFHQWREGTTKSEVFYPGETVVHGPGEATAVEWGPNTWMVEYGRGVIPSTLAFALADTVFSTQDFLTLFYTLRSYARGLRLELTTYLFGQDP

## O=S(=O)(N[C@H]1CCN(Cc2ccccc2)C1)c1ccc(N2CCOCC2)nc1 [Example 1, (S)—N-(1-Benzylpyrrolidin-3-yl)-6-morpholinopyridine-3-sulfonamide]
[1]
  Ki: < 100 nM
[2]
  Ki: > 1000 nM

## O=S(=O)(NC1CCN(Cc2ccccc2)CC1)c1ccc(N2CCOCC2)nc1 [Example 2, N-(1-Benzylpiperidin-4-yl)-6-morpholinopyridine-3-sulfonamide]
[1]
  Ki: < 100 nM
[2]
  Ki: > 1000 nM

## O=S(=O)(N[C@@H]1CCN(Cc2ccccc2)C1)c1ccc(N2CCOCC2)nc1 [Example 3, (R)-N-(1-Benzylpyrrolidin-3-yl)-6-morpholinopyridine-3-sulfonamide]
[1]
  Ki: < 100 nM
[2]
  Ki: > 1000 nM

## CN([C@H]1CCN(Cc2ccccc2)C1)S(=O)(=O)c1ccc(N2CCOCC2)nc1 [Example 4, (S)-N-(1-Benzylpyrrolidin-3-yl)-N-methyl-6-morpholinopyridine-3-sulfonamide]
[1]
  Ki: < 100 nM
[2]
  Ki: > 1000 nM

## CN([C@@H]1CCN(Cc2ccccc2)C1)S(=O)(=O)c1ccc(N2CCOCC2)nc1 [Example 5, (R)-N-(1-Benzylpyrrolidin-3-yl)-N-methyl-6-morpholinopyridine-3-sulfonamide]
[1]
  Ki: < 100 nM
[2]
  Ki: > 1000 nM

## C[C@H]1CN(Cc2ccccc2)C[C@@H]1NS(=O)(=O)c1ccc(N2CCOCC2)nc1 [Example 6, N-((3R,4S)-1-Benzyl-4-methylpyrrolidin-3-yl)-6-morpholinopyridine-3-sulfonamide]
[1]
  Ki: < 100 nM
[2]
  Ki: 500 to 1000 nM

## O=S(=O)(NC1CCN(Cc2ccc(F)cc2)CC1)c1ccc(N2CCOCC2)nc1 [Example 7, N-(1-(4-Fluorobenzyl)piperidin-4-yl)-6-morpholinopyridine-3-sulfonamide]
[1]
  Ki: < 100 nM
[2]
  Ki: > 1000 nM

## O=S(=O)(NC1CCN(Cc2cccc(F)c2)CC1)c1ccc(N2CCOCC2)nc1 [Example 8, N-(1-(3-Fluorobenzyl)piperidin-4-yl)-6-morpholinopyridine-3-sulfonamide]
[1]
  Ki: < 100 nM
[2]
  Ki: > 1000 nM

## N#Cc1cccc(CN2CCC(NS(=O)(=O)c3ccc(N4CCOCC4)nc3)CC2)c1 [Example 9, N-(1-(3-Cyanobenzyl)piperidin-4-yl)-6-morpholinopyridine-3-sulfonamide]
[1]
  Ki: 500 to 1000 nM
[2]
  Ki: > 1000 nM

## O=S(=O)(NC1CCN(Cc2ccc(Cl)cc2)CC1)c1ccc(N2CCOCC2)nc1 [Example 10, N-(1-(4-Chlorobenzyl)piperidin-4-yl)-6-morpholinopyridine-3-sulfonamide]
[1]
  Ki: < 100 nM
[2]
  Ki: > 1000 nM

## N#Cc1ccc(CN2CCC(NS(=O)(=O)c3ccc(N4CCOCC4)nc3)CC2)cc1 [Example 11, N-(1-(4-Cyanobenzyl)piperidin-4-yl)-6-morpholinopyridine-3-sulfonamide]
[1]
  Ki: < 100 nM
[2]
  Ki: > 1000 nM

## O=S(=O)(c1ccc(N2CCOCC2)nc1)N1CCC2(CCN(Cc3ccccc3)CC2)CC1 [Example 12, 4-(5-((9-Benzyl-3,9-diazaspiro[5.5]undecan-3-yl)sulfonyl)pyridin-2-yl)morpholine]
[1]
  Ki: > 1000 nM
[2]
  Ki: < 100 nM

## O=S(=O)(c1ccc(N2CCOCC2)nc1)N1CCC2(CCN(Cc3ccccc3)C2)CC1 [Example 13, 4-(5-((2-Benzyl-2,8-diazaspiro[4.5]decan-8-yl)sulfonyl)pyridin-2-yl)morpholine]
[1]
  Ki: > 1000 nM
[2]
  Ki: 100 to 500 nM

## C[C@@H]1CN(Cc2ccccc2)C[C@H]1NS(=O)(=O)c1ccc(N2CCOCC2)nc1 [Example 14, N-((3S,4R)-1-Benzyl-4-methylpyrrolidin-3-yl)-6-morpholinopyridine-3-sulfonamide]
[1]
  Ki: < 100 nM
[2]
  Ki: > 1000 nM

## O=S(=O)(N[C@@H]1CCN(Cc2ccccc2)C1)c1ccc(N2[C@@H]3CC[C@H]2COC3)nc1 [Example 27, N-((R)-1-Benzylpyrrolidin-3-yl)-6-((1R,5S)-3-oxa-8-azabicyclo [3.2.1]octan-8-yl)pyridine-3-sulfonamide]
[2]
  Ki: > 1000 nM
